Laboratory results as given in ChEMBL document CHEMBL1201862, “PubChem BioAssay data set” (2004).
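In this assay, cells in 96-well plates receive the compound at five concentrations for 48 hours. Endpoints are linearly interpolated between the surrounding concentrations. Abbreviation: GI50, concentration required for 50% inhibition of growth.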 Activity calls are given as the source filed them. Rule as the data show it: active = GI50 up to about 1.1 µM and inactive = higher.

Assays:
Assay in all cases: NCI anticancer screen, dose series, 48 h
786-0 = test system: 786-0
A498 = test system: A498
A549 = test system: A549
ACHN = test system: ACHN
BT-549 = test system: BT-549
CAKI-1 = test system: CAKI-1
CCRF-CEM = test system: CCRF-CEM
COLO 205 = test system: COLO 205
DU-145 = test system: DU-145
EKVX = test system: EKVX
HCC 2998 = test system: HCC 2998
HCT-116 = test system: HCT-116
HCT-15 = test system: HCT-15
HL-60 = test system: HL-60
HOP-62 = test system: HOP-62
HOP-92 = test system: HOP-92
HT-29 = test system: HT-29
Hs-578T = test system: Hs-578T
IGROV-1 = test system: IGROV-1
K562 = test system: K562
KM12 = test system: KM12
LOX IMVI = test system: LOX IMVI
M14 = test system: M14
MCF7 = test system: MCF7
MDA-MB-231 = test system: MDA-MB-231
MDA-MB-435 = test system: MDA-MB-435
MOLT-4 = test system: MOLT-4
Malme-3M = test system: Malme-3M
NCI-H226 = test system: NCI-H226
NCI-H23 = test system: NCI-H23
NCI-H460 = test system: NCI-H460
NCI-H522 = test system: NCI-H522
NCI/ADR-RES = test system: NCI/ADR-RES
OVCAR-3 = test system: OVCAR-3
OVCAR-4 = test system: OVCAR-4
OVCAR-5 = test system: OVCAR-5
OVCAR-8 = test system: OVCAR-8
PC-3 = test system: PC-3
RPMI-8226 = test system: RPMI-8226
RXF 393 = test system: RXF 393
SF-268 = test system: SF-268
SF-295 = test system: SF-295
SF-539 = test system: SF-539
SK-MEL-28 = test system: SK-MEL-28
SK-MEL-2 = test system: SK-MEL-2
SK-MEL-5 = test system: SK-MEL-5
SK-OV-3 = test system: SK-OV-3
SN12C = test system: SN12C
SNB-19 = test system: SNB-19
SNB-75 = test system: SNB-75
SR = test system: SR
SW-620 = test system: SW-620
T47D = test system: T47D
TK-10 = test system: TK-10
U-251 = test system: U-251
UACC-257 = test system: UACC-257
UACC-62 = test system: UACC-62
UO-31 = test system: UO-31

## C=C1C(=O)C23CC1C[C@H](OC(C)=O)C2C1(C)C(OC(C)=O)C[C@H](O)C(C)(C)[C@H]1C(O)[C@@H]3OC(C)=O (stereo partly drawn)
786-0
  GI50: 7.87 µM (inactive)
A498
  GI50: 15.1 µM (inactive)
A549
  GI50: 22.9 µM (inactive)
ACHN
  GI50: 11.9 µM (inactive)
BT-549
  GI50: 3.03 µM (inactive)
CAKI-1
  GI50: 16.4 µM (inactive)
CCRF-CEM
  GI50: 2.24 µM (inactive)
COLO 205
  GI50: 4.13 µM (inactive)
DU-145
  GI50: 18.1 µM (inactive)
EKVX
  GI50: 13.1 µM (inactive)
HCC 2998
  GI50: 21.2 µM (inactive)
HCT-116
  GI50: 5.02 µM (inactive)
HCT-15
  GI50: 10.4 µM
HL-60
  GI50: 3.66 µM (inactive)
HOP-62
  GI50: 18.9 µM (inactive)
HOP-92
  GI50: 9.29 µM (inactive)
HT-29
  GI50: 15.5 µM (inactive)
Hs-578T
  GI50: 15.8 µM (inactive)
IGROV-1
  GI50: 16.5 µM (inactive)
K562
  GI50: 3.56 µM (inactive)
KM12
  GI50: 33 µM (inactive)
LOX IMVI
  GI50: 14.9 µM (inactive)
M14
  GI50: 6.5 µM (inactive)
MCF7
  GI50: 5.78 µM (inactive)
MDA-MB-231
  GI50: 7.19 µM (inactive)
MDA-MB-435
  GI50: 8.09 µM (inactive)
MOLT-4
  GI50: 2.73 µM (inactive)
Malme-3M
  GI50: 7.01 µM (inactive)
NCI-H226
  GI50: 22.1 µM (inactive)
NCI-H23
  GI50: 12.6 µM (inactive)
NCI-H460
  GI50: 26.7 µM (inactive)
NCI-H522
  GI50: 1.61 µM (inactive)
NCI/ADR-RES
  GI50: > 100 µM (inactive)
OVCAR-3
  GI50: 7.18 µM (inactive)
OVCAR-4
  GI50: 10.8 µM (inactive)
OVCAR-5
  GI50: 14.6 µM (inactive)
OVCAR-8
  GI50: 2.96 µM (inactive)
PC-3
  GI50: 11.1 µM (inactive)
RPMI-8226
  GI50: 4.27 µM (inactive)
RXF 393
  GI50: 7.24 µM (inactive)
SF-268
  GI50: 13.4 µM (inactive)
SF-295
  GI50: 24.8 µM (inactive)
SF-539
  GI50: 2.43 µM (inactive)
SK-MEL-28
  GI50: 11.9 µM (inactive)
SK-MEL-2
  GI50: 14.8 µM (inactive)
SK-MEL-5
  GI50: 14.6 µM (inactive)
SK-OV-3
  GI50: 24.8 µM (inactive)
SN12C
  GI50: 8.07 µM (inactive)
SNB-19
  GI50: 21.5 µM (inactive)
SNB-75
  GI50: 18.8 µM (inactive)
SR
  GI50: 7.48 µM (inactive)
SW-620
  GI50: 2.48 µM (inactive)
T47D
  GI50: 6.67 µM (inactive)
TK-10
  GI50: 3.79 µM (inactive)
U-251
  GI50: 15.3 µM (inactive)
UACC-257
  GI50: 11.9 µM (inactive)
UACC-62
  GI50: 13.3 µM (inactive)
UO-31
  GI50: 16.9 µM (inactive)

## O=C(O)c1cc(CC2Cc3cc4c(cc3C2=O)CCC4)cc2c1CCC2 (stereo not drawn)
786-0
  GI50: > 100 µM (inactive)
A498
  GI50: > 100 µM (inactive)
A549
  GI50: > 100 µM (inactive)
ACHN
  GI50: 61 µM (inactive)
BT-549
  GI50: > 100 µM (inactive)
CAKI-1
  GI50: > 100 µM (inactive)
CCRF-CEM
  GI50: 59.3 µM (inactive)
COLO 205
  GI50: > 100 µM (inactive)
DU-145
  GI50: > 100 µM (inactive)
EKVX
  GI50: > 100 µM (inactive)
HCC 2998
  GI50: > 100 µM (inactive)
HCT-116
  GI50: 72.1 µM (inactive)
HCT-15
  GI50: 60.7 µM
HL-60
  GI50: > 100 µM (inactive)
HOP-62
  GI50: > 100 µM (inactive)
HT-29
  GI50: > 100 µM (inactive)
Hs-578T
  GI50: 48.1 µM (inactive)
IGROV-1
  GI50: > 100 µM (inactive)
K562
  GI50: 40.9 µM (inactive)
KM12
  GI50: 75.2 µM (inactive)
LOX IMVI
  GI50: 84.1 µM (inactive)
M14
  GI50: > 100 µM (inactive)
MCF7
  GI50: > 100 µM (inactive)
MDA-MB-231
  GI50: 76.4 µM (inactive)
MDA-MB-435
  GI50: > 100 µM (inactive)
MOLT-4
  GI50: > 100 µM (inactive)
Malme-3M
  GI50: > 100 µM (inactive)
NCI-H226
  GI50: > 100 µM (inactive)
NCI-H23
  GI50: > 100 µM (inactive)
NCI-H460
  GI50: > 100 µM (inactive)
NCI-H522
  GI50: 90.2 µM (inactive)
NCI/ADR-RES
  GI50: > 100 µM (inactive)
OVCAR-3
  GI50: 94.4 µM (inactive)
OVCAR-4
  GI50: > 100 µM (inactive)
OVCAR-5
  GI50: > 100 µM (inactive)
OVCAR-8
  GI50: > 100 µM (inactive)
PC-3
  GI50: 46.6 µM (inactive)
RPMI-8226
  GI50: 70.8 µM (inactive)
SF-268
  GI50: > 100 µM (inactive)
SF-295
  GI50: > 100 µM (inactive)
SF-539
  GI50: > 100 µM (inactive)
SK-MEL-28
  GI50: > 100 µM (inactive)
SK-MEL-2
  GI50: > 100 µM (inactive)
SK-OV-3
  GI50: > 100 µM (inactive)
SN12C
  GI50: > 100 µM (inactive)
SNB-19
  GI50: > 100 µM (inactive)
SNB-75
  GI50: 35.6 µM (inactive)
SR
  GI50: 67.1 µM (inactive)
SW-620
  GI50: > 100 µM (inactive)
T47D
  GI50: > 100 µM (inactive)
TK-10
  GI50: > 100 µM (inactive)
U-251
  GI50: 82.2 µM (inactive)
UACC-257
  GI50: > 100 µM (inactive)
UACC-62
  GI50: 43.2 µM (inactive)
UO-31
  GI50: > 100 µM (inactive)
